In the supplement of paper PMC10307832:

Key:
Assay in all cases: relative viability (nuclei count vs DMSO), 5 days (fraction); higher = more cells survive
IDH-C35 + Navitoclax = compound: Cc1ccccc1C(C(=O)NC1CCCCC1)N(C(=O)Cn1ccnc1C)c1cccc(F)c1 [IDH-C35] + CC1(C)CCC(c2ccc(Cl)cc2)=C(CN2CCN(c3ccc(C(=O)NS(=O)(=O)c4ccc(N[C@H](CCN5CCOCC5)CSc5ccccc5)c(S(=O)(=O)C(F)(F)F)c4)cc3)CC2)C1 [Navitoclax] (partner 0.5 µM)
Procedure, shortened: (§1)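 Medians of duplicate plates are given as relative viability. That measure is the nuclei count in treated wells divided by the count in vehicle wells. Counts were taken on 4× images of lung cancer cell lines in 1536-well plates, 5 days after pin-tool dosing the day after seeding with one drug alone or a fixed anchor-drug dose plus five library-drug doses (not always all listed) in √10 steps.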

IDH-C35 + Linsitinib = compound: Cc1ccccc1C(C(=O)NC1CCCCC1)N(C(=O)Cn1ccnc1C)c1cccc(F)c1 [IDH-C35] + C[C@]1(O)C[C@@H](c2nc(-c3ccc4ccc(-c5ccccc5)nc4c3)c3c(N)nccn32)C1 [Linsitinib] (partner 1 µM)
Procedure, shortened: as §1

[1] = compound: CC1=C(C(=NN1)C)CC2=C(C3=C(S2)N(C(=O)N(C3=O)C)CC(C)C)C(=O)N4C[C@@H](CO4)O + Cc1nc(NC(=O)N2CCC[C@H]2C(N)=O)sc1-c1ccnc(C(C)(C)C(F)(F)F)c1 [Alpelisib] (partner 2 µM)
Procedure, shortened: as §1

IDH-C35 + Palbociclib = compound: Cc1ccccc1C(C(=O)NC1CCCCC1)N(C(=O)Cn1ccnc1C)c1cccc(F)c1 [IDH-C35] + CC(=O)c1c(C)c2cnc(Nc3ccc(N4CCNCC4)cn3)nc2n(C2CCCC2)c1=O [Palbociclib] (partner 0.5 µM)
Procedure, shortened: as §1

Cell Line: UMC-11
- relative viability (IDH-C35 + Navitoclax; first compound 0.08 µM): 0.298
- relative viability (IDH-C35 + Navitoclax; first compound 0.253 µM): 0.347
- relative viability (IDH-C35 + Navitoclax; first compound 0.8 µM): 0.323
- relative viability (IDH-C35 + Navitoclax; first compound 2.53 µM): 0.32
- relative viability (IDH-C35 + Navitoclax; first compound 8 µM): 0.344
- relative viability (IDH-C35 + Linsitinib; first compound 0.08 µM): 0.942
- relative viability (IDH-C35 + Linsitinib; first compound 0.253 µM): 1.06
- relative viability (IDH-C35 + Linsitinib; first compound 0.8 µM): 1.04
- relative viability (IDH-C35 + Linsitinib; first compound 2.53 µM): 1.04
- relative viability (IDH-C35 + Linsitinib; first compound 8 µM): 0.971
- relative viability ([1]; first compound 0.0025 µM): 1.03
- relative viability ([1]; first compound 0.007906 µM): 0.897
- relative viability ([1]; first compound 0.025 µM): 0.75
- relative viability ([1]; first compound 0.07906 µM): 0.986
- relative viability ([1]; first compound 0.25 µM): 0.977
- relative viability (IDH-C35 + Palbociclib; first compound 0.08 µM): 0.335
- relative viability (IDH-C35 + Palbociclib; first compound 0.253 µM): 0.32
- relative viability (IDH-C35 + Palbociclib; first compound 0.8 µM): 0.341
- relative viability (IDH-C35 + Palbociclib; first compound 2.53 µM): 0.299
- relative viability (IDH-C35 + Palbociclib; first compound 8 µM): 0.337
